Measurements from publication PMC8050608 (The Korean Journal of Physiology & Pharmacology : …, 2021).
Like-named read-outs stand apart in the source and are kept apart here.

Experiments:
ORAI1 [1] = molecular target: T1, ORAI1 (Homo sapiens, UniProt Q96D31); format: cell-based; settings: HEK-293T, read-out: % inhibition at 100 μM
ORAI1 [2] = molecular target: T1, ORAI1; format: cell-based; settings: HEK-293T, read-out: % inhibition at 100 μM; remark: listed apart in the source

T1 sequence (Q13586 23-685): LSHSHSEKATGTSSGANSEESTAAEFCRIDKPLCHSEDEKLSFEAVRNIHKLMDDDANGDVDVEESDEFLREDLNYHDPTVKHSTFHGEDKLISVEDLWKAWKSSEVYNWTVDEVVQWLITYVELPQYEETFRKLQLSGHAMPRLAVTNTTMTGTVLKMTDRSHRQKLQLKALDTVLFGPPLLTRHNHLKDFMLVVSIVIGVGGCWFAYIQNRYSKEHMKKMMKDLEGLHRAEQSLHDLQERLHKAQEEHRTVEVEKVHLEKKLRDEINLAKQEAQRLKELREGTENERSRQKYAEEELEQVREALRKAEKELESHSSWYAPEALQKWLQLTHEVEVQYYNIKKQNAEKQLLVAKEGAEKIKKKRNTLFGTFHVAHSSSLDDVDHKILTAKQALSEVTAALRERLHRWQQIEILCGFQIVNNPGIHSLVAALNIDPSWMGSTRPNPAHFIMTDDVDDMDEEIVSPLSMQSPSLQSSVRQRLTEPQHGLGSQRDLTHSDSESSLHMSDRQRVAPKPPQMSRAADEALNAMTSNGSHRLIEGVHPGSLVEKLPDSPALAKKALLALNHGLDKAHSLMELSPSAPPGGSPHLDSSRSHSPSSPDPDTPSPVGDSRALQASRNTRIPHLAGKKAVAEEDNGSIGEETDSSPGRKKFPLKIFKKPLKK
T1 sequence (Q96D31 whole entry): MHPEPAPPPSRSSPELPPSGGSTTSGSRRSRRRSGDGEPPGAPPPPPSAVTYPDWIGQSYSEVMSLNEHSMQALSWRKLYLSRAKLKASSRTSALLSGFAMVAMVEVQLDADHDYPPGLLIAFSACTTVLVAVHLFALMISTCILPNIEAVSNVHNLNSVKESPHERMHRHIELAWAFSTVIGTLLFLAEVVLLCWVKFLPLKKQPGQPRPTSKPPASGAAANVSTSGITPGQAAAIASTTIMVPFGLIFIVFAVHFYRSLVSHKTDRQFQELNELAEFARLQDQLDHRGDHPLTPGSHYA

| inhibition at 100 µM (ORAI1 [1]) [%] | inhibition at 100 µM (ORAI1 [2]) [%] | SMILES |
| --- | --- | --- |
| 24.7 |  | COc1ccc([C@H]2OC[C@H]3[C@@H]2CO[C@@H]3c2ccc(OC)c(OC)c2)cc1OC [eudesmin] |
|  | 29.7 | COc1ccc([C@H]2OC[C@H]3[C@@H]2CO[C@@H]3c2cc(OC)c(OC)c(OC)c2)cc1OC [magnolin] |
